Results from patent US20100000032A1, “PHENOXAZINE DYES” (Wetlands Incubator sprl, priority 2008, published 2010).
One block for each compound: values may come before it.

How the values were obtained:
[1] = Water fastness of dyeing, ISO 105 E01; type: physicochemical; settings: for Water fastness, staining, acrylic / Water fastness, staining, cellulose acetate / Water fastness, staining, cotton / Water fastness, staining, nylon / Water fastness, staining, polyester / Water fastness, staining, wool: rating 1-5; for Water fastness, colour change: polyamide 6 knitted fabric, rating 5 = no colour change, 1 = high colour change
Experimental: (§1) The fastness properties of the dyeings (textile and leather) were measured in accordance with ISO standards mentioned in Table 3. The results shown in Table 3 are the visual assessment described in ISO105-A02: 1993 textiles—test for colour fastness—part A02. On this scale, a rating of 5 means no colour change and a rating of 1 means a high colour change.

[2] = test system: Caco-2 human intestinal cell line; test: In vitro toxicity, neutral red uptake; type: cell-based; settings: concentration at which 50% of the cells die, exposure at least 48 hr, highest concentration tested 0.5 g/L
Experimental: (§2) The toxicity of compounds 17 and 18 were assessed with an in vitro method using the Caco-2 human intestinal cell line and the rainbow trout gonad (RTG-2) fish cell line. […] Subsequently, the cells were exposed to a series of concentrations of the test compounds, and two blanks, for at least 48 hr until 90% confluence was attained in the blanks. The highest concentration tested being 0.5 g/L. Thereafter, the exposure medium containing the test compounds was decanted and the cells in the microplate wells were gently washed with phosphate buffered saline solution. In order to measure the number of viable cells remaining after the exposure to the test compounds, the cells were exposed to a solution of neutral red in cell culture medium for 3 hr. […] Finally, the neutral red solution was decanted, the wells were again gently washed and then a solution of 1% acetic acid in 50% ethanol was added to the wells to dissolve the neutral red taken up by the viable cells. The absorbance of each well at 540 nm was measure with an appropriate microplate reader. The amount of neutral red present in each well is an indication of the number of viable cells and when compared to the values for the blanks can be used to calculate a percentage of cell death. An IC50 value, the concentration of the test compounds at which 50% of the cells die, can be determined if at least one of the tested compounds produces more than 50% cell death and at least one produces less; the results concerning compounds 17 and 18 are given in Table 4. If none of the tested concentrations produces more than 50% cell death, than an estimating can be made if at least some effect is noticeable. Comparing IC50 values among test compounds and with known toxicants allows for an assessment of their relative toxicities.

[3] = test system: rainbow trout gonad (RTG-2) fish cell line; test: In vitro toxicity, neutral red uptake; type: cell-based; settings: Oncorhynchus mykiss, concentration at which 50% of the cells die, exposure at least 48 hr, highest concentration tested 0.5 g/L, read-out: NRTG-2 cells IC50
Experimental: as §2

[4] = Light fastness of dyeing, ISO 105 B02; type: physicochemical; settings: polyamide 6 knitted fabric, rating 5 = no colour change, 1 = high colour change
Experimental: as §1

[5] = Washing fastness of dyeing, ISO 105 C06: A2S; type: physicochemical; settings: for Washing fastness, staining, acrylic / Washing fastness, staining, cellulose acetate / Washing fastness, staining, cotton / Washing fastness, staining, nylon / Washing fastness, staining, polyester / Washing fastness, staining, wool: rating 1-5; for Washing fastness, colour change: polyamide 6 knitted fabric, rating 5 = no colour change, 1 = high colour change
Experimental: as §1

[6] = Chlorinated water fastness of dyeing, ISO 105 E03; type: physicochemical; settings: polyamide 6 knitted fabric, rating 5 = no colour change, 1 = high colour change
Experimental: as §1

- Water fastness, staining, acrylic ([1]; 2% omf): 4/5
- Water fastness, staining, cellulose acetate ([1]; 2% omf): 4/5
- Water fastness, staining, cotton ([1]; 2% omf): 4/5
- Water fastness, staining, nylon ([1]; 2% omf): 3/4
- Water fastness, staining, polyester ([1]; 2% omf): 4/5
- Water fastness, staining, wool ([1]; 2% omf): 4
- Water fastness, colour change ([1]; 2% omf): 3
- Light fastness ([4]; 2% omf): >3
- Washing fastness, staining, acrylic ([5]; 2% omf): 4/5
- Washing fastness, staining, cellulose acetate ([5]; 2% omf): 4/5
- Washing fastness, staining, cotton ([5]; 2% omf): 4/5
- Washing fastness, staining, nylon ([5]; 2% omf): 3/4
- Washing fastness, staining, polyester ([5]; 2% omf): 4/5
- Washing fastness, staining, wool ([5]; 2% omf): 4
- Washing fastness, colour change ([5]; 2% omf): 3
- Chlorinated water fastness, colour change ([6]; 2% omf): 3
SMILES: Nc1c(S(=O)(=O)O)c2nc3c(S(=O)(=O)O)cccc3oc-2cc1=O [Compound 17, 2-Amino-3oxo-3H-phenoxazine-1,9-disulfonic acid]
- IC50 [2]: > 550 µg/mL
- IC50 [3]: > 780 µg/mL

- Water fastness, staining, acrylic ([1]; 1% omf): 4/5
- Water fastness, staining, cellulose acetate ([1]; 1% omf): 4
- Water fastness, staining, cotton ([1]; 1% omf): 4
- Water fastness, staining, nylon ([1]; 1% omf): 3
- Water fastness, staining, polyester ([1]; 1% omf): 4/5
- Water fastness, staining, wool ([1]; 1% omf): 2/3
- Water fastness, colour change ([1]; 1% omf): 4
- Light fastness ([4]; 1% omf): 3
- Washing fastness, staining, acrylic ([5]; 1% omf): 4/5
- Washing fastness, staining, cellulose acetate ([5]; 1% omf): 4/5
- Washing fastness, staining, cotton ([5]; 1% omf): 4/5
- Washing fastness, staining, nylon ([5]; 1% omf): 4/5
- Washing fastness, staining, polyester ([5]; 1% omf): 4/5
- Washing fastness, staining, wool ([5]; 1% omf): 4/5
- Washing fastness, colour change ([5]; 1% omf): 4
- Chlorinated water fastness, colour change ([6]; 1% omf): 3/4
SMILES: Nc1cc2nc3cc(S(=O)(=O)O)ccc3oc-2cc1=O [Compound 18, 2-Amino-3oxo-3H-phenoxazine-8-sulfonic acid]
- IC50 [2]: > 686 µg/mL
